Results taken from patent US20260124213A1, “STAPHYLOCOCCUS AUREUS PBP4 INHIBITORS AND METHOD OF USE” (UNIVERSITY OF ROCHESTER, priority 2022, published 2026).
Where “and” joins values, the source holds several entries; their conditions need not be identical. Identical values can stand only once.

How the values were obtained:
[1] = target: recombinant B. subtilis PBP4 (Bacillus subtilis, UniProt P40750); assay: BOCILLIN FL fluorescence polarization binding competition; conditions: compound 50 μM; Ex. 3 series
Sequence of recombinant B. subtilis PBP4 (P40750 22-624): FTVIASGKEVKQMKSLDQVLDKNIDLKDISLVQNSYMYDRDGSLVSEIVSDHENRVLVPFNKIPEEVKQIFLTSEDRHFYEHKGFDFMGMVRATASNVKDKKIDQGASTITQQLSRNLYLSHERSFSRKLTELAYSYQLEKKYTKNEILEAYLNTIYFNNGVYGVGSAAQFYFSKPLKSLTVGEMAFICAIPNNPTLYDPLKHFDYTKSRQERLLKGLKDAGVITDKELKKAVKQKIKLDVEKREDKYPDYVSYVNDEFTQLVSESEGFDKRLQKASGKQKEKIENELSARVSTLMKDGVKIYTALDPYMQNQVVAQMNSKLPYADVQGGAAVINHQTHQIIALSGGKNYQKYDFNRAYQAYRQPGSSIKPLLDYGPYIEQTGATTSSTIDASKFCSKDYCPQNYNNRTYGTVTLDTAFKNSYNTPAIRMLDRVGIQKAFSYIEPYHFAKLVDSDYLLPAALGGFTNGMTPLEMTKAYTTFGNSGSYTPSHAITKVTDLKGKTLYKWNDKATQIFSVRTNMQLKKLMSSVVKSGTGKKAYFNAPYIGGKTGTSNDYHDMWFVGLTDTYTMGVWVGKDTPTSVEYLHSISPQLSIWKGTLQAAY
Procedure: PBP4 BOCILLIN™ FL Binding Competition Assays. The ability of putative PBP4 inhibitors to impact the active site of recombinant PBP4 was assessed using two previously established BOCILLIN™-FL Penicillin (Penicillin V conjugated to BODIPY fluorescent dye) binding assays. First, fluorescence polarization assays were performed as previously described. Briefly, the indicated amount of the putative PBP4 inhibitor or control antibiotic was incubated with 1 μM recombinant B. subtilis PBP4 or S. aureus PBP2a in potassium phosphate buffer (40 mM K2HPO4 and 10 mM KH2PO4) for 1 hour in black 96-well microtiter plates (Corning Life Sciences®, Corning, NY). Following incubation, 1 μM (final concentration) BOCILLIN™ FL penicillin was added, and the mixture was incubated for 30 minutes. BOCILLIN™ FL fluorescence polarization was measured at (495nm excitation and 545nm emission) in a SpectraMax® M5 multimode plate reader (Molecular Devices®, San Jose, CA). All assays were repeated at least 8 times, averaged, and values falling outside of 2 standard deviations were considered outliers. Resulting data was plotted as percentage BOCILLIN™ FL binding inhibition=(T/U)×100; T=FL polarization of ((PBP4+BOCILLIN™ FL)−(PBP4+BOCILLIN™ FL+inhibitor compound)), U=FL polarization of ((PBP4+BOCILLIN™ FL)−(BOCILLIN™ FL)). Second, gel electrophoresis and fluorescence detection were used to measure BOCILLIN™ FL labeling of PBP4 treated with the known PBP4 inhibitor cefoxitin (positive control), kanamycin (negative control) or 9314848 (test compound). Briefly, 1 μM of recombinant PBP4 was mixed with 0, 50, 500, 2000, or 5000 μM 9314848 or control antibiotic in 50 mM phosphate buffer (pH 7.4) and incubated at 37° C. for 30 minutes. Next 40 μM of BOCILLIN™ FL was added to the reaction mixture and incubated for an additional 30 minutes at 37° C. Reactions were stopped by adding 5×SDS-PAGE gel loading dye, heated at 100° C. for 3 minutes and separated by electrophoresis in 12% SDS-PAGE (2 h, 120 Volts). BOCILLIN™ FL labeled PBP4 was imaged at λ=365 nm using a BioRad© Gel Doc EZ™ Imaging system and the gel was then subsequently stained with Bio-safe Coomassie Brilliant Blue stain (BioRad©, Hercules, CA, USA) to measure the amount of protein present in each reaction condition and analyzed using NIH-ImageJ software. The percent BOCILLIN™ FL binding was calculated by first normalizing the protein present in each reaction condition to that of untreated control and subsequently applying each reaction's protein normalization factor to each reaction's fluorescent signal. The percentage BOCILLIN™ FL binding inhibition was then calculated as the normalized band intensity of antibiotic/compound treated sample as compared to control sample (PBP4+BOCILLIN™ FL in the absence of compound).
To more directly evaluate whether 9314848 is likely to affect PBP4 function, the compound's ability to bind recombinant PBP4 was measured using BOCILLIN™ FL fluorescence polarization displacement assays. The premise for the assay is that the fluorescence polarization of the fluorescently labeled β-lactam, penicillin V (BOCILLIN™ FL), will increase upon binding to its cognate target (i.e., PBP4). Further, compounds that bind PBP4 and inhibit its function would impede BOCILLIN™ FL binding thereby allowing assessment of the protein binding affinity of 9314848 using a simple fluorescence reduction assay.

HEPG2 cells = assay: MTT cell viability / mammalian cytotoxicity; type: cell-based, human; conditions: 100 μM; HEPG2 approx. 2.5 × 10^5 cells/mL; Ex. 3 series
Procedure: Eukaryotic Toxicity Testing. Two rounds of eukaryotic toxicity testing were performed. Initially hits of interest were evaluated for antifungal activity in high throughput manner. To do so, 10^5 CFU of Saccharomyces cerevisiae YSB1001 cells (10 μL) were inoculated into individual wells of a microtiter plate containing yeast peptone dextrose media (88 μL) and 50 μM of each hit (2 μL). […] More extensive mammalian cytotoxicity testing was performed on the indicated highest priority hits of interest following International Organization for Standardization guidelines. Briefly, human liver epithelial cells (HEPG2) were cultured in Dulbecco's modified Eagle medium (DMEM; Fisher Scientific®) supplemented with 10% heat inactivated fetal bovine serum (FBS; Corning Life Sciences, Corning, NY) and 1% penicillin and streptomycin. Cells were incubated at 37° C. with 5% CO2 in Nunc™ tissue culture flasks (Roskilde, Denmark) until reaching 70% confluency. Cells were removed with 0.25% trypsin (Fisher Scientific®), resuspended in fresh medium, and used to seed approximately 2.5×10^5 mL^−1 cells into individual wells of a 96 well tissue culture microplate (Nunc™) containing 200 μL of fresh medium, and incubated for 24 hours. […] Mixtures were incubated for 20-24 h at 37° C. with 5% CO2, the media was removed and replaced with 100 μL fresh media and 10 μL of 12 mM (3-(4,5-dimethylthiazol-2-yl)-2,5-diphenyltetrazolium bromide (MTT) reagent (Cyquant™ Cell Viability kit; Invitrogen™, Carlsbad, CA) was added to each well. Cells were incubated at 37° C. with 5% CO2 for 2-4 hour, 85 μL of media was removed and the remainder was mixed with 50 μL DMSO and incubated for an additional 10 minutes at 37° C. in the dark. Using a SpectraMax® M5 microplate reader, cell viability was recorded as absorbance at OD540 nm. All compounds were tested in triplicate and cell viability was expressed as a percent viability of treated cells in comparison to mock treated cells. […]

For `O=C(Nc1ccc2[nH]c(-c3cccs3)nc2c1)c1ccco1` [Compound 1 (7729837)], the “Percentage Bocillin Displacement (%), PBP4 binding” value [1] was 25.66% and 25.66 ± 18.09% and the “Toxicity with HEPG2 Cells (cell viability)” value (HEPG2 cells) was 95±16.8%.
